Counter-ions that a name gives are not always drawn.
What was measured:
[1] = system: Strenotrophomonas maltophilia ATCC 13637; test: MIC determination by microbroth dilution; type: cell-based
M. tuberculosis H37Rv = test: MIC determination by microbroth dilution, anti-tuberculosis activity; type: cell-based, Mycobacterium tuberculosis
E. coli ribosomes = type: biochemical
[2] = system: Acinetobacter baumannii ATCC 19606; test: MIC determination by microbroth dilution; type: cell-based; conditions: ATCC19606
in vitro [3] = type: in vitro ADME; conditions: rat, plasma, pH 7.4
Protocol: Protein Binding: Protein binding of the compounds was determined using equilibrium dialysis. Biologically relevant concentrations of test compound were prepared (low and high) in rat plasma. 200 μL of the plasma sample was placed in the central chamber and 350 μL of blank isotonic phosphate buffer, pH 7.4 was added to the peripheral chamber of a dialysis device (MW cutoff 6000-8000 D, RED® device, Pierce Biotechnology Inc, Rockford, Ill., United States of America). The chambers were covered with a seal and incubated at 37° C. for four hours on a shaker set at 100 rpm. At the end of incubation, the volumes of plasma and recipient buffer were measured to identify and account for volume shift, if any. Aliquots of plasma and buffer were used to determine the drug concentration using an LC-MS/MS assay. The free fraction of the drug was calculated as ratio of the concentrations in the buffer and in plasma.
Following intravenous administration of 10 mg/kg in rats, 1329 follows a bi-exponential concentration/time profile with distinct distribution and elimination phases. Plasma protein binding of the compound is approximately 30%. 1329 is widely distributed with a steady state volume of distribution of 4.3 L/kg. It has a mean residence time in the body of approximately 5.3 hours.

P. aeruginosa PAO1 = test: MIC determination by microbroth dilution; type: cell-based, Pseudomonas aeruginosa; conditions: Pseudomonas aeruginosa
[4] = system: Burkholderia cepacia ATCC 25416; test: MIC determination by microbroth dilution; type: cell-based; conditions: ATCC25416, read-out: MIC B. cepcia
[5] = system: Strep. pneumoniae DAW27 or strain R6; test: MIC determination by microbroth dilution; type: cell-based, Streptococcus pneumoniae; conditions: Streptococcus pneumoniae; Strep. pneumoniae DAW27 or strain R6 (for 1443-1544); read-out: MIC S. pneumoniae
Vero epithelial cells = conditions: African green monkey
in vivo = test: in vivo; design: species or system rats; conditions: male, Sprague-Dawley, rat, iv
Protocol: Pharmacokinetic Studies: Catheterized male Sprague-Dawley rats (jugular vein alone for oral study and jugular vein and femoral vein for intravenous study) weighing approximately 225 g were obtained from Harlan Bioscience (Indianapolis, Ind., United States of America). The animals were kept on a 12 hr light/dark cycle with food and water available ad libitum. Groups of rats (n=4) received either an intravenous (IV) or oral dose of a test compound at a dose level of 10 mg/kg or 100 mg/kg, respectively. For oral administration, the animals were fasted overnight and until 4 hr after administration of test compound. Serial blood samples (approx. 250 μL) were collected pre-dose and at predetermined time points post-dose until 48 hours. Plasma was separated immediately by centrifugation (10,000 rpm for 10 min at 4° C.) and stored at −80° C. until analysis. Urine specimens were collected for a period of 48 hours following drug administration. The study protocol was approved by the institutional animal care and use committee of the University of Tennessee Health Science Center (Memphis, Tenn., United States of America).
Sample Preparation and LC-MS/MS Assay: A calibration curve ranging from 7.81-1000 μg/L was constructed for each test compound by spiking the test compound into 50 μL of blank plasma. […] Plasma proteins were precipitated by the addition of four volumes of ice cold methanol containing IS. These samples were vortexed and kept on ice for 20 minutes. Following this, the samples were centrifuged at 10,000 rpm for 10 minutes at 4° C. and the supernatants were diluted if necessary and injected onto LC-MS/MS for analysis. Chromatographic separations were carried out using a Shimadzu liquid chromatograph (Shimadzu Corporation, Kyoto, Japan) consisting of two pumps, online degasser, system controller and a CTC Leap auto sampler (Leap Technologies, Carrboro, N.C., United States of America). A gradient of methanol and 10 mM ammonium acetate at pH 3.5 was used at a flow rate of 0.4 mL/min. A Phenomenex® Luna 3μ HILIC, 100×4.6 mm column (Phenomenex, Torrance, Calif., United States of America) protected with a guard column was used for the separation. 10 μL of sample was injected onto the column and the eluate was led directly into an API 3000 triple-quadrupole mass spectrometer (Applied Biosystems ABI/MDS-Sciex, Foster City, Calif., United States of America) equipped with an electrospray ion source. The instrument was operated in the positive ion mode with nebulizer gas (NEB) at 7 psi, curtain gas (CUR) at 8 psi, collision gas (CAD) at 10 psi, ion spray voltage (IS) at +4000 V and temperature (TEM) at 500° C. The resulting multiple reaction monitoring chromatograms were used for quantification using Analyst software version 1.4.1 (Applied Biosystems ABI/MDS-Sciex, Foster City, Calif., United States of America).
Pharmacokinetic Data Analysis: Plasma concentration-time data for oral dose were analyzed by non-compartmental analysis. A two compartment open model with bolus input and first order output was used to analyze the IV plasma concentration-time data. The area under the plasma concentration-time curve from time 0 to infinity (AUCinf) was calculated by the trapezoidal rule with extrapolation to time infinity. Mean residence time (MRT), the average amount of time a particle remains in a compartment of system was calculated for IV dose using MRT=AUMCinf/AUCinf where AUMCinf is the area under the moment curve when the concentration-time curve is extrapolated to infinity. The systemic clearance (CL) was calculated using the equation CL=Doseiv/AUCinf iv, where Doseiv and AUCinf, iv are the IV dose and corresponding area under the plasma concentration-time curve from time 0 to infinity, respectively. An estimate of volume of distribution at steady state (Vss) was obtained from IV data using Vss=MRT*CL. […]

E. coli K12 = test: MIC determination by microbroth dilution; type: cell-based, Escherichia coli; conditions: Escherichia coli, K12
in vitro [6] = conditions: African green monkey
[7] = system: Strep. pyogenes ATCC 700294; test: MIC determination by microbroth dilution; type: cell-based, Streptococcus pyogenes; conditions: Streptococcus pyogenes, ATCC700294, read-out: MIC S. pyogenes
[8] = system: Proteus mirabilis ATCC 25933; test: MIC determination by microbroth dilution; type: cell-based; conditions: ATCC25933

## CN[C@@H]1[C@H](O)[C@H](NC)C2O[C@]3(O)C(OC2[C@H]1O)O[C@H](C)C[C@H]3NC(=O)Cc1ccccn1 (stereo partly drawn) [Compound 1329, 3′-Dihydro-3′-deoxy-4(R)-(pyridin-2yl)acetylamino spectinomycin Dihydrochloride]
[1]
  MIC: 200 µg/mL
M. tuberculosis H37Rv
  Activity (MIC) of 1329 compared to streptomycin: 0.8-1.6
M. tuberculosis H37Rv; Mycobacterium tuberculosis, H37RV, 168 h, read-out: MIC
  MIC: 0.8 µg/mL
E. coli ribosomes; E. coli S30 system, FIG. 4, read-out: concentration causing 50% reduction in the synthesis of luciferase
  IC50: 660 nM
E. coli ribosomes; E. coli S30 transcription/translation assay
  IC50, 50% inhibition of luciferase biosynthesis in S30 assay: 0.29 µg/mL
[2]
  MIC: > 200 µg/mL
In vitro [3]
  fraction unbound at 4 h: ~0.7
P. aeruginosa PAO1
  MIC: 100 µg/mL
[4]
  MIC: > 200 µg/mL
[5]
  MIC: 6.25 µg/mL
Vero epithelial cells
  therapeutic index (IC50 divided by the MIC): 5456
In vivo
  clearance: 13.3 mL/min/kg
  dose eliminated unchanged in the first 6 hours: approx. 40%
  excretion ratio (renal clearance to glomerular filtration rate): 1.7
  fraction of dose excreted unchanged by the kidneys: 0.46
  hepatic extraction ratio: 0.13
In vivo; 10 mg/kg
  MRT: ~5.3 h
E. coli K12
  MIC: 200 µg/mL
In vitro [6]
  IC50 at 72 h: 2180 µg/mL
[7]
  MIC: 50 µg/mL
[8]
  MIC: > 200 µg/mL

— patent US9284325B2, “Spectinamides as anti-tuberculosis agents” (UNIVERSITY OF TENNESSEE RESEARCH FOUNDATION, priority 2009, dated 2016)
